Results from patent publication US10004701B2, “Methods and compositions for treating infection” (UNIVERSITY OF ROCHESTER, priority 2012, dated 2018).
Counter-ions that a name gives are not always drawn. Like-named read-outs stand apart in the source and are kept apart here.

Key:
Experiment in all cases: AK assay 384-well format, Prestwick library screening
E. faecium = assay type: cell-based, Enterococcus faecium; conditions: Enterococcus faecium, 3 h, 50 μM final drug concentration
[1] = tested on: S. aureus strain USA300-0114; assay type: cell-based, Staphylococcus aureus; conditions: Staphylococcus aureus, USA300, 3 h, 50 μM final drug concentration
K. pneumoniae = assay type: cell-based, Klebsiella pneumoniae; conditions: Klebsiella pneumoniae, 3 h, 50 μM final drug concentration
[2] = tested on: A. baumannii strain 98-37-09; assay type: cell-based, Acinetobacter baumannii; conditions: Acinetobacter baumannii, 983709, 3 h, 50 μM final drug concentration
P. aeruginosa = assay type: cell-based, Pseudomonas aeruginosa; conditions: Pseudomonas aeruginosa, 3 h, 50 μM final drug concentration
E. cloacae = assay type: cell-based, Enterobacter cloacae; conditions: Enterobacter cloacae, 3 h, 50 μM final drug concentration
E. coli = assay type: cell-based, Escherichia coli; conditions: Escherichia coli, 3 h, 50 μM final drug concentration
[3] = planktonic E. faecium, 384-well, cutoff for positive-scoring molecules 3-fold increase, read-out: AK-based Prestwick Library Screening Results: E. faecium (increase in extracellular AK activity)
[4] = planktonic S. aureus, 384-well, cutoff for positive-scoring molecules 3-fold increase, read-out: AK-based Prestwick Library Screening Results: S. aureus (increase in extracellular AK activity)
[5] = planktonic K. pneumoniae, 384-well, cutoff for positive-scoring molecules 3-fold increase, read-out: AK-based Prestwick Library Screening Results: K. pneumoniae (increase in extracellular AK activity)
[6] = planktonic A. baumannii, 384-well, cutoff for positive-scoring molecules 3-fold increase, read-out: AK-based Prestwick Library Screening Results: A. baumannii (increase in extracellular AK activity)
[7] = planktonic P. aeruginosa, 384-well, cutoff for positive-scoring molecules 3-fold increase, read-out: AK-based Prestwick Library Screening Results: P. aeruginosa (increase in extracellular AK activity)
[8] = planktonic E. cloacae, 384-well, cutoff for positive-scoring molecules 3-fold increase, read-out: AK-based Prestwick Library Screening Results: E. cloacae (increase in extracellular AK activity)
[9] = planktonic E. coli, 384-well, cutoff for positive-scoring molecules 3-fold increase, read-out: AK-based Prestwick Library Screening Results: E. coli (increase in extracellular AK activity)
[10] = 384-well format, cutoff for positive-scoring molecules 3-fold increase, read-out: AK-based Prestwick Library Screening Results, E. faecium (increase in extracellular AK activity)
[11] = 384-well format, cutoff for positive-scoring molecules 3-fold increase, read-out: AK-based Prestwick Library Screening Results, S. aureus (increase in extracellular AK activity)
[12] = 384-well format, cutoff for positive-scoring molecules 3-fold increase, read-out: AK-based Prestwick Library Screening Results, K. pneumoniae (increase in extracellular AK activity)
[13] = 384-well format, cutoff for positive-scoring molecules 3-fold increase, read-out: AK-based Prestwick Library Screening Results, A. baumannii (increase in extracellular AK activity)
[14] = 384-well format, cutoff for positive-scoring molecules 3-fold increase, read-out: AK-based Prestwick Library Screening Results, P. aeruginosa (increase in extracellular AK activity)
[15] = 384-well format, cutoff for positive-scoring molecules 3-fold increase, read-out: AK-based Prestwick Library Screening Results, E. cloacae (increase in extracellular AK activity)
[16] = 384-well format, cutoff for positive-scoring molecules 3-fold increase, read-out: AK-based Prestwick Library Screening Results, E. coli (increase in extracellular AK activity)
[17] = cutoff for positive-scoring molecules 3-fold increase, read-out: AK-based Prestwick Library Screening Results, E. faecium (fold increase in extracellular AK activity)
[18] = cutoff for positive-scoring molecules 3-fold increase, read-out: AK-based Prestwick Library Screening Results, S. aureus (fold increase in extracellular AK activity)
[19] = cutoff for positive-scoring molecules 3-fold increase, read-out: AK-based Prestwick Library Screening Results, K. pneumoniae (fold increase in extracellular AK activity)
[20] = cutoff for positive-scoring molecules 3-fold increase, read-out: AK-based Prestwick Library Screening Results, A. baumannii (fold increase in extracellular AK activity)
[21] = cutoff for positive-scoring molecules 3-fold increase, read-out: AK-based Prestwick Library Screening Results, P. aeruginosa (fold increase in extracellular AK activity)
[22] = cutoff for positive-scoring molecules 3-fold increase, read-out: AK-based Prestwick Library Screening Results, E. cloacae (fold increase in extracellular AK activity)
[23] = cutoff for positive-scoring molecules 3-fold increase, read-out: AK-based Prestwick Library Screening Results, E. coli (fold increase in extracellular AK activity)

## CCOC(=O)C1=C(C)NC(C)=C(C(=O)OC)C1c1cccc(Cl)c1Cl (stereo not drawn) [Felodipine]
E. faecium; planktonic, cutoff for positive 3-fold increase, read-out: AK-based Prestwick Library Screening Results, E. faecium (fold increase in extracellular AK activity)
  fold induction at 50 µM: 1.3
[1]; planktonic, cutoff for positive 3-fold increase, read-out: AK-based Prestwick Library Screening Results, S. aureus (fold increase in extracellular AK activity)
  fold induction at 50 µM: 2.5
K. pneumoniae; planktonic, cutoff for positive 3-fold increase, read-out: AK-based Prestwick Library Screening Results, K. pneumoniae (fold increase in extracellular AK activity)
  fold induction at 50 µM: 1
[2]; planktonic, cutoff for positive 3-fold increase, read-out: AK-based Prestwick Library Screening Results, A. baumannii (fold increase in extracellular AK activity)
  fold induction at 50 µM: 3
P. aeruginosa; planktonic, cutoff for positive 3-fold increase, read-out: AK-based Prestwick Library Screening Results, P. aeruginosa (fold increase in extracellular AK activity)
  fold induction at 50 µM: 1
E. cloacae; planktonic, cutoff for positive 3-fold increase, read-out: AK-based Prestwick Library Screening Results, E. cloacae (fold increase in extracellular AK activity)
  fold induction at 50 µM: 1.7
E. coli; planktonic, cutoff for positive 3-fold increase, read-out: AK-based Prestwick Library Screening Results, E. coli (fold increase in extracellular AK activity)
  fold induction at 50 µM: 1.2

## COC(=O)Nc1nc2ccc(Sc3ccccc3)cc2[nH]1 [Fenbendazole]
E. faecium; [3]
  fold induction at 50 µM: 0.9
[1]; [4]
  fold induction at 50 µM: 0.6
K. pneumoniae; [5]
  fold induction at 50 µM: 0.7
[2]; [6]
  fold induction at 50 µM: 0.9
P. aeruginosa; [7]
  fold induction at 50 µM: 0.9
E. cloacae; [8]
  fold induction at 50 µM: 1.3
E. coli; [9]
  fold induction at 50 µM: 0.9

## O=C(O)CCC(=O)c1ccc(-c2ccccc2)cc1 [Fenbufen]
E. faecium; [3]
  fold induction at 50 µM: 0.8
[1]; [4]
  fold induction at 50 µM: 0.7
K. pneumoniae; [5]
  fold induction at 50 µM: 0.8
[2]; [6]
  fold induction at 50 µM: 1
P. aeruginosa; [7]
  fold induction at 50 µM: 0.8
E. cloacae; [8]
  fold induction at 50 µM: 1.6
E. coli; [9]
  fold induction at 50 µM: 0.8

## CC(NCCC(c1ccccc1)c1ccccc1)c1ccccc1 (stereo not drawn) [Fendiline hydrochloride]
E. faecium; [10]
  fold induction at 50 µM: 1.1
[1]; [11]
  fold induction at 50 µM: 0.8
K. pneumoniae; [12]
  fold induction at 50 µM: 0.8
[2]; [13]
  fold induction at 50 µM: 1.5
P. aeruginosa; [14]
  fold induction at 50 µM: 1.1
E. cloacae; [15]
  fold induction at 50 µM: 0.9
E. coli; [16]
  fold induction at 50 µM: 1

## CC(C)OC(=O)C(C)(C)Oc1ccc(C(=O)c2ccc(Cl)cc2)cc1 [Fenofibrate]
E. faecium; [10]
  fold induction at 50 µM: 0.8
[1]; [11]
  fold induction at 50 µM: 0.8
K. pneumoniae; [12]
  fold induction at 50 µM: 0.6
[2]; [13]
  fold induction at 50 µM: 0.7
P. aeruginosa; [14]
  fold induction at 50 µM: 0.8
E. cloacae; [15]
  fold induction at 50 µM: 1.2
E. coli; [16]
  fold induction at 50 µM: 0.8

## CC(C(=O)O)c1cccc(Oc2ccccc2)c1 (stereo not drawn) [Fenoprofen calcium salt dihydrate]
E. faecium; planktonic, cutoff for positive-scoring molecules 3-fold increase, read-out: AK-based Prestwick Library Screening Results, E. faecium (fold increase in extracellular AK activity)
  fold induction at 50 µM: 0.9
[1]; planktonic, cutoff for positive-scoring molecules 3-fold increase, read-out: AK-based Prestwick Library Screening Results, S. aureus (fold increase in extracellular AK activity)
  fold induction at 50 µM: 0.8
K. pneumoniae; planktonic, cutoff for positive-scoring molecules 3-fold increase, read-out: AK-based Prestwick Library Screening Results, K. pneumoniae (fold increase in extracellular AK activity)
  fold induction at 50 µM: 0.7
[2]; planktonic, cutoff for positive-scoring molecules 3-fold increase, read-out: AK-based Prestwick Library Screening Results, A. baumannii (fold increase in extracellular AK activity)
  fold induction at 50 µM: 0.8
P. aeruginosa; planktonic, cutoff for positive-scoring molecules 3-fold increase, read-out: AK-based Prestwick Library Screening Results, P. aeruginosa (fold increase in extracellular AK activity)
  fold induction at 50 µM: 0.8
E. cloacae; planktonic, cutoff for positive-scoring molecules 3-fold increase, read-out: AK-based Prestwick Library Screening Results, E. cloacae (fold increase in extracellular AK activity)
  fold induction at 50 µM: 1.4
E. coli; planktonic, cutoff for positive-scoring molecules 3-fold increase, read-out: AK-based Prestwick Library Screening Results, E. coli (fold increase in extracellular AK activity)
  fold induction at 50 µM: 0.8

## CC(Cc1ccc(O)cc1)NCC(O)c1cc(O)cc(O)c1 (stereo not drawn) [Fenoterol hydrobromide]
E. faecium; planktonic E. faecium, 384-well, […], read-out: AK-based Prestwick Library Screening Results: E. faecium (increase in extracellular AK activity)
  fold induction at 50 µM: 1.1
[1]; planktonic S. aureus, 384-well, […], read-out: AK-based Prestwick Library Screening Results: S. aureus (increase in extracellular AK activity)
  fold induction at 50 µM: 1
K. pneumoniae; planktonic K. pneumoniae, 384-well, […], read-out: AK-based Prestwick Library Screening Results: K. pneumoniae (increase in extracellular AK activity)
  fold induction at 50 µM: 0.9
[2]; planktonic A. baumannii, 384-well, […], read-out: AK-based Prestwick Library Screening Results: A. baumannii (increase in extracellular AK activity)
  fold induction at 50 µM: 1.3
P. aeruginosa; planktonic P. aeruginosa, 384-well, […], read-out: AK-based Prestwick Library Screening Results: P. aeruginosa (increase in extracellular AK activity)
  fold induction at 50 µM: 1.1
E. cloacae; planktonic E. cloacae, 384-well, […], read-out: AK-based Prestwick Library Screening Results: E. cloacae (increase in extracellular AK activity)
  fold induction at 50 µM: 1.4
E. coli; planktonic E. coli, 384-well, […], read-out: AK-based Prestwick Library Screening Results: E. coli (increase in extracellular AK activity)
  fold induction at 50 µM: 1.3

## O=C1NCC2(CCN(CCc3ccccc3)CC2)O1 [Fenspiride hydrochloride]
E. faecium; [3]
  fold induction at 50 µM: 1
[1]; [4]
  fold induction at 50 µM: 1.1
K. pneumoniae; [5]
  fold induction at 50 µM: 1
[2]; [6]
  fold induction at 50 µM: 1.2
P. aeruginosa; [7]
  fold induction at 50 µM: 1.1
E. cloacae; [8]
  fold induction at 50 µM: 1.6
E. coli; [9]
  fold induction at 50 µM: 1.3

## COc1cc(C(=O)OC2CC3CCC(C2)N3C)ccc1O (stereo not drawn) [Fillalbin]
E. faecium; [17]
  fold induction at 50 µM: 1
[1]; [18]
  fold induction at 50 µM: 1
K. pneumoniae; [19]
  fold induction at 50 µM: 0.8
[2]; [20]
  fold induction at 50 µM: 0.9
P. aeruginosa; [21]
  fold induction at 50 µM: 1.2
E. cloacae; [22]
  fold induction at 50 µM: 1.8
E. coli; [23]
  fold induction at 50 µM: 1.2

## CC(C)(C)NC(=O)[C@H]1CC[C@H]2[C@@H]3CC[C@H]4NC(=O)C=C[C@]4(C)[C@H]3CC[C@]12C [Finasteride]
E. faecium; [17]
  fold induction at 50 µM: 1.1
[1]; [18]
  fold induction at 50 µM: 1
K. pneumoniae; [19]
  fold induction at 50 µM: 0.9
[2]; [20]
  fold induction at 50 µM: 1.2
P. aeruginosa; [21]
  fold induction at 50 µM: 1.1
E. cloacae; [22]
  fold induction at 50 µM: 1.8
E. coli; [23]
  fold induction at 50 µM: 1.1

## O=C(COc1ccc(Cl)cc1)N1CCN(Cc2ccc3c(c2)OCO3)CC1 [Fipexide hydrochloride]
E. faecium; [3]
  fold induction at 50 µM: 1.1
[1]; [4]
  fold induction at 50 µM: 0.9
K. pneumoniae; [5]
  fold induction at 50 µM: 1.1
[2]; [6]
  fold induction at 50 µM: 1
P. aeruginosa; [7]
  fold induction at 50 µM: 1
E. cloacae; [8]
  fold induction at 50 µM: 1.3
E. coli; [9]
  fold induction at 50 µM: 1.3

## Cc1c(-c2ccccc2)oc2c(C(=O)OCCN3CCCCC3)cccc2c1=O [Flavoxate hydrochloride]
E. faecium; [10]
  fold induction at 50 µM: 0.9
[1]; [11]
  fold induction at 50 µM: 0.6
K. pneumoniae; [12]
  fold induction at 50 µM: 0.6
[2]; [13]
  fold induction at 50 µM: 0.5
P. aeruginosa; [14]
  fold induction at 50 µM: 0.6
E. cloacae; [15]
  fold induction at 50 µM: 0.6
E. coli; [16]
  fold induction at 50 µM: 0.5
